According to patent US20230348376A1 (TEIJIN PHARMA LIMITED, priority 2020, published 2023):

Tests used:
[1] = system: rat oligodendrocyte progenitor cells; test: Promotive activity of rat oligodendrocyte progenitor cell differentiation-1 (MBP gene expression, mRNA); format: cell-based; settings: Rattus norvegicus, Oligodendrocyte progenitor cell, 96 h, read-out: promotive activity at T3 base (MBP gene expression; DMSO 0%, T3 100%), 4 days, MBP/β actin mRNA
Procedure: Regarding vitamin D derivatives, which was confirmed to act on the vitamin D receptor (VDR) in Example 352, the promotive activity of oligodendrocyte progenitor cell (OPC) differentiation was evaluated by MBP gene expression (mRNA).
A forebrain obtained from SD rat (Charles River Japan, 1 day old) was crushed with 70 μm Cell Strainer (Falcon #352350), and a cell suspension was prepared by collecting the cells in oligodendrocyte progenitor cell separation medium (20% FBS/2 mM Glutamax (Gibco #35050-061)/i mM sodium pyruvate (Gibco #11360-070)/1% penicillin-streptomycin (Invitrogen #15140-122)/DMEM (Gibco #11960-044)). The cell suspension was seeded in a poly-D-lysine coated T75 flask (Thermo Fisher Scientific #132704) and cultured for about 2 weeks. After culturing, the flask was shaken using a rotary shaker ([…] #WB-101SRC) for about 1 hour (37° C., 100 rpm), and the supernatant was discarded to remove microglia. Subsequently, oligodendrocyte progenitor cell separation medium was added to the flask, and the mixture was similarly shaken for about 22 hours (37° C., 200 rpm), and the supernatant was collected to prepare oligodendrocyte progenitor cells.
The oligodendrocyte progenitor cell prepared was suspended in a differentiation medium (2% B27 (Thermo Fisher Scientific, Inc. #17504-044)/1% penicillin-streptomycin (Invitrogen Corporation #15140-122)/10 ng/mL CNTF (PeproTech Inc. #AF-450-13)/DMEM (Gibco #11960-044)), and seeded on a 96-well plate coated with poly-L-ornithine (FUJIFILM Wako Pure Chemical Corporation #163-27421) under the condition of 0.65×10^4 cells/well, and on a 384-well plate under the condition of 2×10^3 cells/well using an automatic dispensing system (LABCYTE #Echo555). […] After culturing, the cells seeded on the 96-well plate were subjected to immunostaining against MBP using following methods: fixation (4% paraformaldehyde solution, 30 minutes, room temperature), PBS washing, membrane permeation treatment (0.1% Trion X-100 (SIGMA #X100-100ML)/PBS, 3 minutes, room temperature), blocking (3% BSA (SIGMA #A9647-10G)/PBS, 1 hour, room temperature), primary antibody reaction (MBP antibody (abcam plc #ab40390), 2.5 μg/mL, 4° C., 24 hours), PBS washing, secondary antibody reaction (Alexa488 anti-rabbit IgG (Thermo Fisher Scientific, Inc. #A-11034), 5 μg/mL, room temperature, 1 hour), PBS washing, and nuclear staining (Hoechst33342 (DOJINDO #NU043), 10 μg/mL, room temperature, 5 minutes). Subsequently, images of each well were acquired using a fluorescence microscope (KEYENCE CORPORATION #BZ-X800), the number of MBP-positive cells and Hoechst 33342-positive cells were measured using an image analysis application (KEYENCE CORPORATION #BZ-X800 Analyzer), and then the ratio (the number of MBP-positive cells/the number of Hoechst33342-positive cells) was calculated. The cells seeded on the 384-well plate were subjected to real-time PCR using Cells-to-CT 1-Step TaqMan Kit (Thermo Fisher Scientific, Inc. #A25602) and QuantStudio 12K Flex Real-Time PCR System (Thermo Fisher Scientific, Inc. #4472380). The experiment was performed in accordance with the protocol attached to the kit. MBP (Thermo Fisher Scientific, Inc. #Assay ID Rn00690616_ml) and β actin (Thermo Fisher Scientific, Inc. #Assay ID Rn00667869_ml) were used as primers, and the expression levels of each were measured and the ratio (MBP/β actin) was calculated.

[2] = target: T1, human VDR (Homo sapiens, UniProt P11473); test: Evaluation of VDR transcription activity in human osteoblasts (HOS cells), luciferase reporter; settings: Activity (EC50, VDR transcription activity), HOS cells transfected with human VDR, human RXRα and DR3 luciferase reporter; 21 hours
T1 sequence (P11473 1-427): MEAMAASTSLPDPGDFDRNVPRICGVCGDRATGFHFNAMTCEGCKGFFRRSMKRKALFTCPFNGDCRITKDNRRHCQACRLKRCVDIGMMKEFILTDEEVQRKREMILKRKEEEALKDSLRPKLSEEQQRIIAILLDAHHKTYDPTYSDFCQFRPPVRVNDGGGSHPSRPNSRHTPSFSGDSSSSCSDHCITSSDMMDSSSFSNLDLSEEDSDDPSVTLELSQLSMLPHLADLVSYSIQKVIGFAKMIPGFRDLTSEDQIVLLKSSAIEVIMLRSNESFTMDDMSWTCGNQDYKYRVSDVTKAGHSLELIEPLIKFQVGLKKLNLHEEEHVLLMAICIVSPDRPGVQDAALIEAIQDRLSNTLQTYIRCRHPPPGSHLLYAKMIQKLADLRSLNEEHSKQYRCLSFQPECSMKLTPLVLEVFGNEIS
T1 sequence (P19793 1-462 partner): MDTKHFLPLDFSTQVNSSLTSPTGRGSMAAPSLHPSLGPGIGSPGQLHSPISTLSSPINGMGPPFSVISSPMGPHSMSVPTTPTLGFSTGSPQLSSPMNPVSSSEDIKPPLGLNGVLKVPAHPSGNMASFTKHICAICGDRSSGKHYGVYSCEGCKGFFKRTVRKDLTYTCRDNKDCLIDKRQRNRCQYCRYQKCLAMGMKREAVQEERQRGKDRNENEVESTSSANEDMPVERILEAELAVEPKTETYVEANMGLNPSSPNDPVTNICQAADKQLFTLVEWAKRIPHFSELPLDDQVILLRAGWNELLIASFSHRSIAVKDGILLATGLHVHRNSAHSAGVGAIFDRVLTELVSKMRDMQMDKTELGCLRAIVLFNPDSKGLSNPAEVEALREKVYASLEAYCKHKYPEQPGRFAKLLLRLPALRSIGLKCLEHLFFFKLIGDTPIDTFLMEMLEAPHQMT

Which results are given for `C=C1/C(=C\C=C2/CCC[C@]3(C)[C@@H]([C@H](C)CN4CC[C@H](CCC(F)F)C4)CC[C@@H]23)C[C@@H](O)C[C@@H]1O` [Compound B059, (1R,3S,Z)-5-(2-((1R,3aS,7aR,E)-1-((S)-1-((S)-3-(3,3-difluoropropyl)pyrrolidin-1-yl)propan-2-yl)-7a-methyloctahydro-4H-inden-4-ylidene)ethylidene)-4-methylenecyclohexane-1,3-diol]?
activation at 1 µM [1]: ≥ 20%; EC50 [2]: 100 to 1000 nM

`C=C1[C@H](O)CC(=C/C=C2\CCC[C@]3(C)[C@@H]([C@H](C)CN4CC[C@H](CCC(F)F)C4)CC[C@@H]23)C[C@H]1O` [Compound B061, (1R,3R)-5-(2-((1R,3aS,7aR,E)-1-((S)-1-((S)-3-(3,3-difluoropropyl)pyrrolidin-1-yl)propan-2-yl)-7a-methyloctahydro-4H-inden-4-ylidene)ethylidene)-2-methylenecyclohexane-1,3-diol] was tested. Which activation at 1 µM [1] did it give?
Its activation at 1 µM is at least 20%.

What about the EC50 [2] of the same compound?
The EC50 was 1 to 10 nM.

For `C=C1[C@H](O)CC(=C/C=C2\CCC[C@]3(C)[C@@H]([C@H](C)CN4CC[C@@H](CCC(F)F)C4)CC[C@@H]23)C[C@H]1O` [Compound B062, (1R,3R)-5-(2-((1R,3aS,7aR,E)-1-((S)-1-((R)-3-(3,3-difluoropropyl)pyrrolidin-1-yl)propan-2-yl)-7a-methyloctahydro-4H-inden-4-ylidene)ethylidene)-2-methylenecyclohexane-1,3-diol], which activation at 1 µM [1] is on record?
The activation at 1 µM was at least 20%.

What about the EC50 [2] of the same compound?
Its EC50 is 10 to 100 nM.

What does the source list for `C[C@H](CCN1CC[C@H](CC(F)F)C1)[C@H]1CC[C@H]2/C(=C/C=C3C[C@@H](O)C[C@H](O)C3)CCC[C@]12C` [Compound B082, (1R,3R)-5-(2-((1R,3aS,7aR,E)-1-((R)-4-((R)-3-(2,2-difluoroethyl)pyrrolidin-1-yl)butan-2-yl)-7a-methyloctahydro-4H-inden-4-ylidene)ethylidene)cyclohexane-1,3-diol]?
activation at 1 µM [1]: ≥ 20%; EC50 [2]: 10 to 100 nM

Which activation at 1 µM [1] does the source give for `C=C1/C(=C\C=C2/CCC[C@]3(C)[C@@H]([C@H](C)CN4CCC[C@H](C(C)(F)F)C4)CC[C@@H]23)C[C@@H](O)C[C@@H]1O` [Compound C052, (1R,3S,Z)-5-(2-((1R,3aS,7aR,E)-1-((S)-1-((S)-3-(1,1-difluoroethyl)piperidin-1-yl)propan-2-yl)-7a-methyloctahydro-4H-inden-4-ylidene)ethylidene)-4-methylenecyclohexane-1,3-diol] here?
The activation at 1 µM was at least 20%.

And the EC50 [2]?
Its EC50 is 10 to 100 nM.

With `C=C1/C(=C\C=C2/CCC[C@]3(C)[C@@H]([C@H](C)CN4CCC[C@H](C(C)(F)F)C4)CC[C@@H]23)C[C@@H](O)[C@H](C)[C@@H]1O` [Compound C054, (1R,2S,3S,Z)-5-(2-((1R,3aS,7aR,E)-1-((S)-1-((S)-3-(1,1-difluoroethyl)piperidin-1-yl)propan-2-yl)-7a-methyloctahydro-4H-inden-4-ylidene)ethylidene)-2-methyl-4-methylenecyclohexane-1,3-diol] as the compound, how does the activation at 1 µM [1] read?
The activation at 1 µM was at least 20%.

What about the EC50 [2] of the same compound?
The EC50 was 10 to 100 nM.

`C=C1/C(=C\C=C2/CCC[C@]3(C)[C@@H]([C@@H](C)CN4CCOCC4)CC[C@@H]23)C[C@@H](O)[C@H](C)[C@@H]1O` [Compound D003, (1R,2S,3S,Z)-2-methyl-5-(2-((1R,3aS,7aR,E)-7a-methyl-1-((R)-1-morpholinopropan-2-yl)octahydro-4H-inden-4-ylidene)ethylidene)-4-methylenecyclohexane-1,3-diol] was tested. Which activation at 1 µM [1] did it give?
The activation at 1 µM was at least 20%.

What about the EC50 [2] of the same compound?
The EC50 was 10 to 100 nM.

What does the source list for `C=C1[C@H](O)CC(=C/C=C2\CCC[C@]3(C)[C@@H]([C@H](C)CN4CCO[C@H](C(F)F)C4)CC[C@@H]23)C[C@H]1O` [Compound D007, (1R,3R)-5-(2-((1R,3aS,7aR,E)-1-((S)-1-((S)-2-(difluoromethyl)morpholino)propan-2-yl)-7a-methyloctahydro-4H-inden-4-ylidene)ethylidene)-2-methylenecyclohexane-1,3-diol]?
activation at 1 µM [1]: ≥ 20%; EC50 [2]: 1 to 10 nM

For `C=C1[C@H](O)CC(=C/C=C2\CCC[C@]3(C)[C@@H]([C@H](C)CN4CCO[C@@H](C(F)F)C4)CC[C@@H]23)C[C@H]1O` [Compound D008, (1R,3R)-5-(2-((1R,3aS,7aR,E)-1-((S)-1-((R)-2-(difluoromethyl)morpholino)propan-2-yl)-7a-methyloctahydro-4H-inden-4-ylidene)ethylidene)-2-methylenecyclohexane-1,3-diol], which activation at 1 µM [1] is on record?
Its activation at 1 µM is at least 20%.

What about the EC50 [2] of the same compound?
The EC50 was 1 to 10 nM.

With `C=C1[C@H](O)CC(=C/C=C2\CCC[C@]3(C)[C@@H]([C@H](C)CN4CCOC5(CCCC5)C4)CC[C@@H]23)C[C@H]1O` [Compound D012, (1R,3R)-5-(2-((1R,3aS,7aR,E)-1-((S)-1-(6-oxa-9-azaspiro[4.5]decan-9-yl)propan-2-yl)-7a-methyloctahydro-4H-inden-4-ylidene)ethylidene)-2-methylenecyclohexane-1,3-diol] as the compound, how does the activation at 1 µM [1] read?
The activation at 1 µM was at least 20%.

And the EC50 [2]?
Its EC50 is 1 to 10 nM.

What does the source list for `C=C1[C@H](O)CC(=C/C=C2\CCC[C@]3(C)[C@@H]([C@H](C)CN4C[C@@H](C)OC[C@H]4C)CC[C@@H]23)C[C@H]1O` [Compound D017, (1R,3R)-5-(2-((1R,3aS,7aR,E)-1-((S)-1-((2R,5R)-2,5-dimethylmorpholino)propan-2-yl)-7a-methyloctahydro-4H-inden-4-ylidene)ethylidene)-2-methylenecyclohexane-1,3-diol]?
activation at 1 µM [1]: ≥ 20%; EC50 [2]: 10 to 100 nM

Which results are given for `C=C1[C@H](O)CC(=C/C=C2\CCC[C@]3(C)[C@@H]([C@H](C)CCN4CCO[C@@H](C)C4)CC[C@@H]23)C[C@H]1O` [Compound D025, (1R,3R)-5-(2-((1R,3aS,7aR,E)-7a-methyl-1-((R)-4-((S)-2-methylmorpholino)butan-2-yl)octahydro-4H-inden-4-ylidene)ethylidene)-2-methylenecyclohexane-1,3-diol]?
activation at 1 µM [1]: ≥ 20%; EC50 [2]: 10 to 100 nM

How did the activation at 1 µM [1] turn out when `C=C1[C@H](O)CC(=C/C=C2\CCC[C@]3(C)[C@@H]([C@H](C)CCN4CCOC(C)(C)C4)CC[C@@H]23)C[C@H]1O` [Compound D029, (1R,3R)-5-(2-((1R,3aS,7aR,E)-1-((R)-4-(2,2-dimethylmorpholino)butan-2-yl)-7a-methyloctahydro-4H-inden-4-ylidene)ethylidene)-2-methylenecyclohexane-1,3-diol] was run?
Its activation at 1 µM is at least 20%.

And the EC50 [2]?
The EC50 was 1 to 10 nM.
